From publication PMC10545567, “A complex bearing TSPO PIGA ligand coordinated to the [Au(PEt3)]^+ pharmacophore is highly cytotoxic against ovarian cancer cells” (Biometals, 2023) come the findings set out here.

The target in this test is T1, Thioredoxin reductase (TrxR) (Rattus norvegicus, UniProt O89049).
T1 construct: gene Txnrd1
Briefly: DTNB reduction assay with isolated rat liver TrxR, […] nm, […] min preincubation with NADPH.

One may read the IC50 as the concentration that inhibits the measured activity by half. A higher IC50 goes with weaker potency in that assay.

T1 sequence (O89049 whole entry): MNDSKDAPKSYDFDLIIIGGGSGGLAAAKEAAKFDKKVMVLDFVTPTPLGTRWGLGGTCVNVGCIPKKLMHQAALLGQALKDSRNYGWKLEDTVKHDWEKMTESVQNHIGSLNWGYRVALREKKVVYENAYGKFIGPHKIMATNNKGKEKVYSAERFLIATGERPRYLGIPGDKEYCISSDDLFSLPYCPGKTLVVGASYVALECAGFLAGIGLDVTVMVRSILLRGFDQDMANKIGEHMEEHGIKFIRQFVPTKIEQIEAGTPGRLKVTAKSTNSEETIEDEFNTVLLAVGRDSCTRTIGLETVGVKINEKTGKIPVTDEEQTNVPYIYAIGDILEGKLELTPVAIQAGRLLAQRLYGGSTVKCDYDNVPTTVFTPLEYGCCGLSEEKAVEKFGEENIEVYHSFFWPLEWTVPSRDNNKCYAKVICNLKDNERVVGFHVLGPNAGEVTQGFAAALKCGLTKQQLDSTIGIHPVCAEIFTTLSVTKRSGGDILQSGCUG

Take `CC[P+](CC)(CC)[Au-][Cl]` [compound 5, Et3PAuCl]: the IC50 stood at 0.0511 µM.

Regarding `CCCCCCN(CCCCCC)C(=O)C(=O)c1c(-c2ccccc2)[n]([Au-][P+](CC)(CC)CC)c2ccccc12` [compound 1, [N,N-di-n-hexyl-2-(2-phenyl-1-indol-kN-3-yl)glyoxylamido]-AuPEt3], half-maximal inhibition (IC50) required 0.0592 µM.
